In the NIST ThermoML archive (doi:10.1016/j.jct.2006.09.015):

Assays:
[1] = relative permittivity at various frequencies (dimensionless); details: 101.3 kPa, Liquid, Frequency=3 MHz, Bridge type OH-301 made in Radelcis, Hungary
[2] = relative permittivity at various frequencies (dimensionless); xn = mol fraction of the nth substance listed; details: 101.3 kPa, Liquid, Frequency=3 MHz, Bridge type OH-301 made in Radelcis, Hungary

COCCO [2-methoxyethan-1-ol]
[1]
Details | relative permittivity
293.15 K | 17.38
298.15 K | 16.95
303.15 K | 16.56

COCCO [2-methoxyethan-1-ol] + OCCOCCO
[2], x1 = 1
Details | relative permittivity
293.15 K | 17.38
298.15 K | 16.95
303.15 K | 16.56

COCCO [2-methoxyethan-1-ol] + OCCOCCOCCO
[2], x1 = 1
Details | relative permittivity
293.15 K | 17.38
298.15 K | 16.95
303.15 K | 16.56

COCCO [2-methoxyethan-1-ol] + OCCOCCOCCOCCO
[2], x1 = 1
Details | relative permittivity
293.15 K | 17.38
298.15 K | 16.95
303.15 K | 16.56

OCCOCCO [diethylene glycol]
[1]
Details | relative permittivity
293.15 K | 31.81
298.15 K | 30.95
303.15 K | 30.03

OCCOCCO [diethylene glycol] + COCCO
relative permittivity, [2]
Details | 293.15 K | 298.15 K | 303.15 K
x2 = 0 | 31.81 | 30.95 | 30.03
x2 = 0.0414 | 31.69 | 30.71 | 29.85
x2 = 0.0999 | 31.49 | 30.39 | 29.49
x2 = 0.2077 | 31.23 | 29.85 | 29.01
x2 = 0.3001 | 31.03 | 29.41 | 28.45
x2 = 0.4094 | 30.32 | 28.67 | 27.49
x2 = 0.4998 | 29.56 | 27.81 | 26.61
x2 = 0.5994 | 28.32 | 26.68 | 25.36
x2 = 0.6996 | 26.65 | 24.99 | 23.55
x2 = 0.7996 | 24.25 | 22.78 | 21.64
x2 = 0.9018 | 21.43 | 20.27 | 19.39
x2 = 0.9463 | 19.98 | 18.88 | 18.25

OCCOCCOCCO [triethylene glycol]
[1]
Details | relative permittivity
293.15 K | 23.69
298.15 K | 23.07
303.15 K | 22.43

OCCOCCOCCO [triethylene glycol] + COCCO
relative permittivity, [2]
Details | 293.15 K | 298.15 K | 303.15 K
x2 = 0 | 23.69 | 23.07 | 22.43
x2 = 0.05 | 23.69 | 23.05 | 22.42
x2 = 0.1 | 23.7 | 23.03 | 22.41
x2 = 0.2003 | 23.72 | 23.06 | 22.48
x2 = 0.2999 | 23.76 | 23.07 | 22.48
x2 = 0.4009 | 23.79 | 23.06 | 22.44
x2 = 0.5 | 23.82 | 22.95 | 22.35
x2 = 0.5999 | 23.77 | 22.76 | 21.91
x2 = 0.7 | 23.62 | 22.3 | 21.39
x2 = 0.8 | 22.92 | 21.54 | 20.43
x2 = 0.9 | 21.26 | 19.93 | 19.1
x2 = 0.9499 | 19.75 | 18.81 | 18.14
